In publication PMC11322497 (Frontiers in Pharmacology, 2024):

Legend:
[1] = Ex vivo plasma protein binding, terminal bleed after 5 days of acute dosing; assay type: in vitro ADME; conditions: rabbit, plasma from dosed rabbits (ex vivo), oral, 30 mg/kg, terminal bleed after 5 days 30 mg/kg, week 12
[2] = Plasma free selvigaltin pharmacokinetics, acute 5-day treatment; assay type: in vivo, rabbit
Text: The dose employed was established based on pilot pharmacokinetics studies in rabbits performed historically in naïve rabbits (data not shown). This first part of the study allowed the determination of the therapeutic benefits of selvigaltin following acute treatment, thus validating the model for further investigation of this mechanism in a chronic treatment protocol.
(§1) After 1 week of standard diet, animals (n = 12) were randomly assigned to the following groups (Table 1A): • Control rabbits continued to receive a regular diet (RD) for 12 weeks and were treated for 5 days (days 1–5, p.o.), during the last week before culling, with either vehicle; RD+1W Veh group] or GB1211 (30 mg/kg; RD + 1W 30 mg group); • Rabbits received a high fat diet (HFD) for 12 weeks (RD implemented with 0.5% cholesterol and 2.5% vegetable fat) and were treated for 5 days (days 1–5, p.o.), during the last week before culling, with either vehicle (HFD + 1W Veh group) or GB1211 (30 mg/kg; HFD + 1W 30 mg group).
Liver homogenates were prepared by homogenisation of 200 mg liver tissue/ml water using a Fisherbrand™ Homogenizer 150 (Thermo Fisher Scientific, Waltham, MA). Plasma or liver homogenate were mixed 1 part matrix with 3 parts acetonitrile prior to centrifugation at 10,000 g for 10 min at 18°C with supernatant diluted x4 with water prior to LC-MS/MS analysis.

[3] = system: high fat diet (HFD) rabbit model of metabolic-associated steatohepatitis (MASH); experiment: HFD rabbit study, acute 5-day treatment: liver histomorphology (Giemsa, Masson's trichrome, PSR, SHG); assay type: in vivo, New Zealand White rabbits; conditions: 30 mg/kg p.o. 5 days, week 12; for Ballooning score 0 (no ballooning), share of animals / Ballooning score 1 (few ballooned cells), share of animals / Ballooning score 2 (prominent ballooning), share of animals / Fibrosis (Ishak Score) 0, share of animals / Fibrosis (Ishak Score) 1, share of animals / Fibrosis (Ishak Score) 2, share of animals / Fibrosis (Ishak Score) 3, share of animals / Fibrosis (Ishak Score) 4, share of animals / Fibrosis (Ishak Score) 5, share of animals / Inflammation score 0 (no foci), share of animals / Inflammation score 1 (<2 foci), share of animals / Inflammation score 2 (2–4 foci), share of animals / Inflammation score 3 (> 4 foci), share of animals: n = 3
Procedure: as §1
Liver specimens were fixed in 10% buffered formalin (Sigma-Aldrich Corp., St. Louis, MO), paraffin embedded and sectioned at a thickness of 5 μm with a microtome. The slides were stained with hematoxylin and eosin (H&E; both Bio-Optica, Milan, Italy), following standard protocols for histological analysis, to evaluate the general morphology and tissue structure, and then analyzed to evaluate inflammation and […] using Giemsa and Masson’s trichrome staining, respectively. Briefly, deparaffinized and rehydrated sections were incubated with Giemsa (Bio-Optica) in distilled water at ratio 1:1 or with Masson’s trichrome (Bio-Optica), following the manufacturer’s instructions, as previously described ([Vignozzi et al., 2014]). To evaluate lipid accumulation, liver specimens were also cryosectioned at a thickness of 8 μm, fixed with 4% paraformaldehyde, treated for 2–5 min with isopropanol and stained with Oil Red O (Bio-Optica) for 20 min, following the manufacturer’s instructions.
In liver, collagen content evaluation for fibrosis grade and quantification was conducted by staining using Picrosirius Red Stain kit (Bio-Optica), as per manufacturer’s instructions. Briefly, deparaffinized and rehydrated sections were incubated with the staining solution for 50 min, rinsed with the appropriate reagents and with distilled water, dehydrated through ascending alcohols and xylene, and mounted, as previously described ([Comeglio et al., 2017]).
Blinded images of unstained sections of liver were acquired using a Genesis®200 imaging system (HistoIndex, Singapore) and analyzed by Second Harmonic Generation (SHG) microscopy to visualize collagen and Two-Photon Excitation Fluorescence (TPEF) microscopy to visualize the other tissue structures as previously described ([Liu et al., 2017]).
Briefly, deparaffinized tissue sections were imaged by SHG at 780 nm (specific to collagen-1 and -3) simultaneously with TPEF at 780 nm (collected at 550 nm to visualize tissue structure). Both were captured at a ×20 objective and […] resolution. A specialized artificial intelligence analysis program developed by, and proprietary to, HistoIndex were employed to identify and quantify collagen fibres across liver regions with outputs highlighted below and as previously described ([Liu et al., 2017]): • SHG Overall Area (Percentage of total collagen in overall region). • Strings Overall N. (Number of collagen strings in overall region). • Strings Overall Length (Total length of all collagen strings in overall region). • Strings PT Area (Total area of all collagen strings in portal tract region). • Strings PT Length (Total length of all collagen strings in portal tract region). • Strings PS Area (Total area of all collagen strings in peri-sinusoidal region). • Strings PS Length (Total length of all collagen strings in peri-sinusoidal region).
The grading system for inflammation enumerated the number of foci in each 200x field assessed, according to [Kleiner et al. (2005)]: 0 = no foci; 1 = <2 foci; 2 = 2–4 foci; 3 => 4 foci. As shown in the contingency table (Table 3), statistically higher scoring grades were recorded in the HFD+1W Veh group, compared to RD+1W Veh and HFD + 1W 30 mg (both p < 0.05). […]

[4] = HFD rabbits, p < 0.001 vs. HFD + 1W Veh

## OC[C@H]1O[C@H](Sc2cncc(Br)c2)[C@H](O)[C@@H](n2cc(-c3cc(F)c(F)c(F)c3)nn2)[C@H]1O [selvigaltin]
[1]; HFD rabbits
  fraction unbound at 5 days: 0.929
[1]; RD rabbits
  fraction unbound at 5 days: 0.946
[2]; 30 mg/kg/day p.o., acute treatment
  steady state systemic plasma drug concentration vs rabbit galectin-3 binding KD: ~40 fold
[2]; day 4 of treatment, 30 mg/kg p.o.
  plasma exposure in HFD+1W 30 mg vs RD+1W 30 mg: marginal increase in exposure
[3]; HFD rabbits
  Ballooning score 0 (no ballooning), share of animals: 0.0%
  Ballooning score 1 (few ballooned cells), share of animals: 66.7%
  Ballooning score 2 (prominent ballooning), share of animals: 33.3%
  Fibrosis (Ishak Score) 0, share of animals: 0.0%
  Fibrosis (Ishak Score) 1, share of animals: 0.0%
  Fibrosis (Ishak Score) 2, share of animals: 33.3%
  Fibrosis (Ishak Score) 3, share of animals: 66.7%
  Fibrosis (Ishak Score) 4, share of animals: 0.0%
  Fibrosis (Ishak Score) 5, share of animals: 0.0%
  Inflammation score 0 (no foci), share of animals: 100.0%
  Inflammation score 1 (<2 foci), share of animals: 0.0%
  Inflammation score 2 (2–4 foci), share of animals: 0.0%
  Inflammation score 3 (> 4 foci), share of animals: 0.0%
[3]; [4]
  Picrosirius Red percentage of fibrosis area: significantly reduced fibrosis to RD levels
  SHG percentage of fibrosis area: normalized
[3]; RD rabbits
  Ballooning score 0 (no ballooning), share of animals: 100.0%
  Ballooning score 1 (few ballooned cells), share of animals: 0.0%
  Ballooning score 2 (prominent ballooning), share of animals: 0.0%
  Fibrosis (Ishak Score) 0, share of animals: 0.0%
  Fibrosis (Ishak Score) 1, share of animals: 0.0%
  Fibrosis (Ishak Score) 2, share of animals: 33.3%
  Fibrosis (Ishak Score) 3, share of animals: 66.7%
  Fibrosis (Ishak Score) 4, share of animals: 0.0%
  Fibrosis (Ishak Score) 5, share of animals: 0.0%
  Inflammation score 0 (no foci), share of animals: 66.7%
  Inflammation score 1 (<2 foci), share of animals: 33.3%
  Inflammation score 2 (2–4 foci), share of animals: 0.0%
  Inflammation score 3 (> 4 foci), share of animals: 0.0%
